This note sets out measurements from patent publication US10336733B2, “Aryl acylsulfonamides as BLT1 antagonists” (Merck Sharp & Dohme Corp., priority 2015, dated 2019).

Chain of human BLT1 receptor (Q15722 whole entry): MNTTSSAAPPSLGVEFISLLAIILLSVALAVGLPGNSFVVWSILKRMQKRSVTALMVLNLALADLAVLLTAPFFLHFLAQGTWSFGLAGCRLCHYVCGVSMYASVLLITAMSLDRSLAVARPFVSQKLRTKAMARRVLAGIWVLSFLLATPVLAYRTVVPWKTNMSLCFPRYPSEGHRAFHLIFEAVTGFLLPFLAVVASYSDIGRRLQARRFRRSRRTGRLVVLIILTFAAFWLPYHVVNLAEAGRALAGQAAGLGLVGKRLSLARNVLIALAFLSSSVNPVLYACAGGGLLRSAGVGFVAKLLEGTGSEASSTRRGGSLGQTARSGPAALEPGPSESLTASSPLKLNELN

This assay concerns the target human BLT1 receptor (Homo sapiens (Human), UniProt Q15722). Briefly: BLT-1 cAMP Assay. The assay is classed as cell-based. The note with it: antagonist mode; HEK293 cells recombinantly expressing human BLT1 receptor; forskolin 4 μM and LTB4 2 nM; cAMP detection. The procedure: The ability of compounds to antagonize the human BLT1 receptor was determined using a kit to measure changes in intracellular cyclic AMP levels (cAMP dynamic assay kit, Cisbio Cat. No. 62AM4PEC). HEK293 cells recombinantly expressing human BLT1 receptor, previously frozen in Recovery Medium (Life Technologies, Cat. No. 12648-010) were thawed and diluted into assay medium (HBSS (Hyclone SH 30268.01), 20 mM HEPES (Gibco 15630-106), 800 μM IBMX (Sigma I5879), 0.1% DTPA BSA (Perkin Elmer CR84-100)). The cell suspension was centrifuged at 200×g for 10 min and then resuspended in fresh assay medium to a density of 2.5×10^5 cells/mL. A Labcyte Echo 550 acoustic dispenser was used to transfer 25 nL of test compound dissolved in DMSO into the wells of a dry 384-well plate (Greiner 784075). All subsequent liquid additions were performed using a BIORAPTR (FRD; Beckman Coulter). Next, 5 μL of cell suspension was added and incubated for 20 min. at 37° C. and 5% CO2 in a humidified plastic tray. To test for agonist activity […] of assay buffer containing forskolin (Sigma F-6886. 4 μM for BLT1) was added and incubated for 30 minutes at 37° C. and 5% CO2 in a humidified plastic tray. To test for antagonist activity 5 μL of assay buffer containing forskolin (Sigma F-6886. 4 μM for BLT1) and either LTB4 (Sigma Aldrich L0517; 2 nM BLT1) was added and incubated for 30 minutes at 37° C. and 5% CO2 in a humidified plastic tray.
The levels of cAMP were detected using the CisBio kit following the manufacturer's instructions: cAMP-d2 vial was reconstituted with distilled water and then diluted accordingly with conjugate & lysis buffer. 5 μL of cAMP-d2 working solution was added to all of the wells of the assay plate. cAMP-Cryptate vial was reconstituted with distilled water and then diluted accordingly with conjugate & lysis buffer. 5 μL of cAMP-Cryptate working solution were added to the assay plate. The assay plate was shaken for 3 minutes and incubated at room temperature for 45 minutes, then read on Perkin Elmer Envision. cAMP standard curve and fit data were plotted using a 4 parameter dose response curve fitting algorithm to fit curve. A 4-parameter curve fit (Max, min, log EC50 and slope) was used to transform fluorescent 665 nm/615 nm ratio signal to cAMP concentration. After normalization to treated and untreated controls, the percent effect of signal at each compound concentration was calculated. The plot of percent effect versus the log of compound concentration was fit with a 4-parameter concentration response equation to calculate EC50 values. Compound concentrations tested were 10 000, 3 333, 1 111, 370.4, 123.4, 41.2, 13.7, 4.6, 1.5 and 0.5 nM with 0.25% residual DMSO.
In the case of `C[C@H](c1ccccn1)C1COc2cc(-c3ccccc3C(=O)NS(=O)(=O)C3(C)CC3)ccc2C1O` (stereo in doubt) [Example 50, 2-((3,4-trans)-4-Hydroxy-3-((S)-1-(pyridin-2-yl)ethyl)chroman-7-yl)-N-((1-methylcyclopropyl)sulfonyl)benzamide], the EC50 (as a rule, the midpoint of the concentration-response curve) worked out at 67 nM. As for `CC(C)CS(=O)(=O)NC(=O)c1ccccc1-c1ccc2c(c1)OCC(Cc1ccccn1)C2O` (stereo not drawn) [Example 17, 2-((3,4-trans)-4-Hydroxy-3-(pyridin-2-ylmethyl)chroman-7-yl)-N-(isobutylsulfonyl)benzamide], the figure is 24 nM. In the case of `O=C(NS(=O)(=O)CC1CC1)c1ccccc1-c1ccc2c(c1)OCC(Cc1ccccn1)C2O` (stereo not drawn) [Example 18, N-((Cyclopropylmethyl)sulfonyl)-2-((3,4-trans)-4-hydroxy-3-(pyridin-2-ylmethyl)chroman-7-yl)benzamide], the EC50 was found to be 23 nM. As for `O=C(NS(=O)(=O)C1CCCC1)c1ccccc1-c1ccc2c(c1)OCC(Cc1ccccn1)C2O` (stereo not drawn) [Example 19, N-(Cyclopentylsulfonyl)-2-((3,4-trans)-4-hydroxy-3-(pyridin-2-ylmethyl)chroman-7-yl)benzamide], the figure is 48 nM; as for `CC(C)(C)CS(=O)(=O)NC(=O)c1ccccc1-c1ccc2c(c1)OCC(Cc1ccccn1)C2O` (stereo not drawn) [Example 20, 2-((3,4-trans)-4-Hydroxy-3-(pyridin-2-ylmethyl)chroman-7-yl)-N-(neopentylsulfonyl)benzamide], 44 nM.
